Common to all, as to assay type: biochemical
The test system of assay [1] is ACAT. The assay can be described thus: ACAT inhibition in human liver microsomes. The text has this: (§1) The ability of compounds to inhibit ACAT can be measured using an in-vitro test described in Field & Salone (1982) Biochemica et Biophysica, 712, 557-570. The test assesses the ability of a test compound to inhibit the acylation of cholesterol by oleic acid by measuring the amount of radiolabeled cholesterol oleate formed from radiolabeled oleic acid in a tissue preparation containing rat liver microsomes.
(§2) The inhibitory activity of sulfamic acid [[2,4,6-tris(1-methylethyl)phenyl]acetyl-2,6-bis(1-methylethyl)phenyl ester against DGAT1, DGAT2 and ACAT was measured in rat and human liver microsomes. DGAT1 and DGAT2 can be distinguished since DGAT2 is not active at high magnesium concentrations (concentrations of 50 mM or higher) whilst DGAT1 retains its activity at high magnesium concentrations.
A general note: Liver microsomes are vesicles of endoplasmic reticulum, rich in cytochrome P450 enzymes.

Assay [2] relates to ACAT. Kind of assay: ACAT inhibition in rat liver microsomes.
Source text: as §1, §2

The test system of assay [3] is DGAT1 and DGAT2. Kind of assay: DGAT inhibition (DGAT1 and DGAT2) in human liver microsomes. As for the experimental part: (§3) The ability of compounds to inhibit DGAT can be measured as described in Coleman (1992) Methods in Enzymology 209, 98-102.
as §2
(§4) The results obtained, expressed as the concentration of inhibitor at which 50% of the enzyme activity is inhibited, i.e. the IC50, are as follows: […]

The target of assay [4] is T1, DGAT1 (Homo sapiens, UniProt O75907).
T1 construct: from tissue; host or cells: human liver microsomes
T1 sequence (O75907 1-488): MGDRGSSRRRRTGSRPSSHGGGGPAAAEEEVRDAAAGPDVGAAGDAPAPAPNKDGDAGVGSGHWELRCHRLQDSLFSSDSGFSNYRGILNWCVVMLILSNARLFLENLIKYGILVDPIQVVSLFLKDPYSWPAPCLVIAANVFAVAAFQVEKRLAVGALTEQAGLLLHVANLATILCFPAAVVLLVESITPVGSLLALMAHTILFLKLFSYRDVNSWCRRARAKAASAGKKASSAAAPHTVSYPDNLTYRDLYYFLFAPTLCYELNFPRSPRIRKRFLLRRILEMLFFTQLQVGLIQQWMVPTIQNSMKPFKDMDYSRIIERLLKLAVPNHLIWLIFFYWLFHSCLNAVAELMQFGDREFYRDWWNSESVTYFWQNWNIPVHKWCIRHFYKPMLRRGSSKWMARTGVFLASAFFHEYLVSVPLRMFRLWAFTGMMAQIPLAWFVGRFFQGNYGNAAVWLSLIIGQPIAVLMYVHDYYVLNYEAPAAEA
The assay can be described thus: DGAT1 inhibition at 100 mM Mg in human liver microsomes. As for the experimental part: as §3, §2, §4

In assay [5] the target is T2, DGAT1 (Rattus norvegicus, UniProt Q9ERM3).
T2 construct: from tissue; host or cells: rat liver microsomes
T2 sequence (Q9ERM3 1-498): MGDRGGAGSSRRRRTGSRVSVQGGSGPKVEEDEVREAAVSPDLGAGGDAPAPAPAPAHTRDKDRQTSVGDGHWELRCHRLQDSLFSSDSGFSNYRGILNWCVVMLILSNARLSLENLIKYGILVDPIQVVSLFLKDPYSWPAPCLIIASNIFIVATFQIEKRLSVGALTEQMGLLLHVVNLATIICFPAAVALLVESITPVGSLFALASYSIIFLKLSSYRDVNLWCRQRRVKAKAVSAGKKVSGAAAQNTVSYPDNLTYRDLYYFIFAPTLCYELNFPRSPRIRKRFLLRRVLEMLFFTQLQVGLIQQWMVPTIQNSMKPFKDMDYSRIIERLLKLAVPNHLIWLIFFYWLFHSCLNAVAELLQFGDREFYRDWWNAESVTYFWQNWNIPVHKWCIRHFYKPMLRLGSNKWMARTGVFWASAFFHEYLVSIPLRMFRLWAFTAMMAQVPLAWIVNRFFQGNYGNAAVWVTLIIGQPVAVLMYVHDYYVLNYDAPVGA
Kind of assay: DGAT1 inhibition at 100 mM Mg in rat liver microsomes. The method, then:
as §3, §2, §4

In assay [6] the test system is DGAT1 and DGAT2. Kind of assay: DGAT inhibition (DGAT1 and DGAT2) in rat liver microsomes. The method, then:
as §3, §2, §4

What is called IC50 is the concentration that gives 50% inhibition. Lower therefore signals inhibition by little substance.

As for `CC(C)c1cc(C(C)C)c(CC(=O)NS(=O)(=O)Oc2c(C(C)C)cccc2C(C)C)c(C(C)C)c1` [sulfamic acid [[2,4,6-tris(1-methylethyl)phenyl]acetyl-2,6-bis(1-methylethyl)phenyl ester], the half-inhibitory concentration (IC50) with ACAT [1] turned out to be 5.67 µM; in the assay on ACAT [2] it was 1.03 µM; with DGAT1 and DGAT2 [3] it was 7.95 µM; at DGAT1 [4], 3.03 µM; against DGAT1 [5], 2.28 µM; in the assay with DGAT1 and DGAT2 [6] it was 3.41 µM.

The values are drawn from patent publication US20070155832A1, “Use of sulfonamide compounds for the treatment of diabetes and/or obesity” (priority 2003, published 2007).
